Measured values taken from patent publication US7678794B2, “Potentiators of glutamate receptors” (Eli Lilly and Company, priority 2004, dated 2010).

Biological target: T1, human CysLT1 receptor (Homo sapiens, UniProt Q9Y271)
T1 construct: expressed in transfected cells; host or cells: AV12-664 (ATCC-9595)
T1 sequence (Q9Y271 1-337): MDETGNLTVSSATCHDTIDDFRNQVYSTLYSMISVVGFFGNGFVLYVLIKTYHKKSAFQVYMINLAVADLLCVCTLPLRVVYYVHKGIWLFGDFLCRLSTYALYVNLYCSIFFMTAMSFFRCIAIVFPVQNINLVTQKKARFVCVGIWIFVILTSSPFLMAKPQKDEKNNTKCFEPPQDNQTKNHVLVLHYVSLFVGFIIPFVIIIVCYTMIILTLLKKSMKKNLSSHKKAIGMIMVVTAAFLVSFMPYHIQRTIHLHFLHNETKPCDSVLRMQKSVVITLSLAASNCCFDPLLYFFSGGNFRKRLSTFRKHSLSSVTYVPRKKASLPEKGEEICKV
Assay: Antagonism of LTD4-induced increase in intracellular calcium within a CysLT1 receptor expressing cell line (FLIPR)
Type: cell-based
Details: AV12-664 cells expressing human CysLT1; 6 nM LTD4; read-out: antagonism of CysLT1 receptors, IC50
Excerpt: Antagonism of Cysteinyl-leukotriene D4 (LTD4)—Induced Increase in Intracellular Calcium within a Cysteinyl-Leukotriene 1 (CysLT1) Receptor Expressing Cell Line
Confluent cultures are passaged weekly. Intracellular calcium levels are monitored in the CysLT1-expressing cells with the addition of LTD4, with or without prior exposure to the compounds being tested as antagonists with a Fluorometric Imaging Plate Reader (FLIPR, Molecular Devices). The following buffer is used throughout as an assay buffer: Hanks Buffered Saline Solution without phenol red (GIBCO), with 10 mM HEPES pH 7.4. Cells that had been plated 48 hours prior at a density of 20-25,000 cells per well in a 96-well plate are loaded with a calcium-sensitive dye for 90 minutes at 25° C. Fluo-3 (2 mM in DMSO, Molecular Probes) is mixed with an equal volume of 10% pluronic acid in DMSO, and diluted to 8 μM in the buffer described above containing 10% fetal bovine serum to make the loading buffer. Following loading of the cells, the buffer is removed and replaced with assay buffer prior to drug addition and monitoring on the FLIPR for several minutes. […] Least squares curve fitting with a four-parameter equation is applied to the resulting dose-% inhibition curve to determine the resulting IC50 values.

In the case of CCCc1c(OCc2ccc(NC(=O)Nc3cccc(C(=O)O)c3)cc2)ccc(C(C)=O)c1O [Example 1, 3-{3-[4-(4-acetyl-3-hydroxy-2-propyl-phenoxymethyl)-phenyl]-ureido}-benzoic acid], the IC50 is reported as < 500 nM.
With CCCc1c(OCc2ccc(S(=O)(=O)Nc3ccccc3-c3nn[nH]n3)cc2)ccc(C(C)=O)c1O [Example 10, 4-(4-Acetyl-3-hydroxy-2-propyl-phenoxymethyl)-N-[2-(2 H-tetrazol-5-yl)-phenyl]-benzene-sulfonamide] the IC50 was < 500 nM.
CCCc1c(OCc2cccc(S(=O)(=O)Nc3cccc(-c4nn[nH]n4)c3)c2)ccc(C(C)=O)c1O [Example 12, 3-(4-Acetyl-3-hydroxy-2-propyl-phenoxymethyl)-N-[3-(2 H-tetrazol-5-yl)-phenyl]-benzene-sulfonamide] was tested, and the IC50 was < 500 nM.
With CCCc1c(OCc2cccc(S(=O)(=O)Nc3ccccc3-c3nn[nH]n3)c2)ccc(C(C)=O)c1O [Example 13, 3-(4-Acetyl-3-hydroxy-2-propyl-phenoxymethyl)-N-[2-(2 H-tetrazol-5-yl)-phenyl]-benzene-sulfonamide] the IC50 was < 500 nM.
